This is an account of results in US5707679A, “Metal propionates for use as animal feed supplements” (priority 1995, dated 1998).

Read-outs that look alike come from different tables or passages of the source.

Series [1] is described as follows: Performance of growing cattle (Study 2: weight, gain, feed intake, gain/feed). The conditions noted are these: for Average daily gain / Feed intake / Gain/feed / Final weight / Initial weight: growing steers; for Final weight / Initial weight: 25 ppm supplemental zinc; for Initial weight: baseline. It is filed as in vivo, Angus steers. From the text: Thirty-six Angus steers with an average body weight of 268 kg were stratified by weight and randomly assigned to feed regimens. […] Zinc was supplemented in all treatments to provide 25 ppm of supplemental zinc.
Steers were housed in pens of 12 steers and individually fed using electronic gates. Each pen contained an equal number of steers from each dietary regimen. Steers were fed a basal corn silage-based growing diet supplemented with protein, minerals and vitamins. Diets were offered ad libitum.
Body weights were obtained on two consecutive days at the initiation and termination of the 112-day study. Interim weights were taken at 28-day intervals. Blood and rumen fluid samples were obtained on day 42 of the study for determination of plasma and rumen fluid soluble zinc concentrations. Data were statistically analyzed by least square analysis of variance.

Series [2] is described as follows: Performance of finishing cattle (Study 1: weight, gain, feed intake, gain/feed). It is filed as in vivo, Angus crossbred steers. Further details: Average daily gain: unit not given here. As to conditions: finishing steers; for Final weight / Initial weight: 25 ppm supplemental zinc; for Final weight: 140-day study; for Initial weight: baseline. From the text: Fifty-six Angus crossbred steers were used in this study. Steers were purchased from either a feeder calf sale […] a preconditioned sale. Steers were blocked by sale type and weight, and then randomly assigned to a feed regimen. […] All regimens provided 25 ppm of supplemental zinc. Steers were housed in pens containing seven steers each.
Supplemental protein was supplied from a combination of soybean meal and urea. Steer weights were obtained on two consecutive days at the beginning and the end of the 140-day study. Interim weights were taken at 28-day intervals. Feed intake was measured daily. Blood and rumen fluid samples were obtained from 10 steers per treatment approximately two hours post feeding on day 42 of the study. Samples were analyzed for plasma and rumen fluid soluble zinc concentrations. Data were analyzed statistically by least square analysis of variance.

The conditions of series [3]: cited from earlier work; for biological availability vs inorganic salts (in words): polyvalent metal ions from metal-amino acid complexes; for absorption of metal cations in the gastrointestinal tract (in words): in vivo.
A short description of series [4]: Comparative zinc bioavailability trial in day-old broilers (growth, feed conversion, bone ash, tibia ash zinc, plasma zinc). The conditions noted are these: for Relative Biological Availability: Feed conversion (corr.): 3-21 days; for Relative Biological Availability: Body weight gain / Relative Biological Availability: Bone ash / Relative Biological Availability: Ending body weight: 21 days. The protocol: Each zinc treatment was replicated eight times and each pen contained ten male birds.
Basal feeds and zinc compound were mixed in a horizontal feed mixer providing the desired ingredient composition as shown in Table 2. The broilers were fed the rations for 21 days. Feed weights were taken during the trial. Body weights were measured at the beginning and at the end of the trial. On day 21, zinc levels in the blood and tibia ash were determined. The assay procedures for total tibia zinc content or concentration to assess zinc utilization are similar to those used by Wedekind et al., J. Anim. Sci., 70:178-187 (1992). The data were analyzed according to the SAS statistical package.
Chick growth parameters and zinc levels in the blood and tibia ash were used as criteria to determine the biological availability of zinc. […] The biological availability of zinc sulfate was arbitrarily set at 100%.

The conditions of series [5]: chickens; cited from earlier work.
For series [6] the following is noted: bovine, in vivo; cited from earlier work.
For series [7] the following is noted: in vivo; cited from earlier work.
[8] abbreviates: 0 to 28 days, propionate vs. methionine P < 0.05, vs. sulfate P < 0.10 (as footnoted).
[9] abbreviates: 29 to 56 days, propionate vs. methionine P < 0.05.
The mark [10] stands for this setting: 29 to 56 days, propionate vs. sulfate P < 0.05, vs. methionine P < 0.10.
Setting [11] is: 57 to 84 days, propionate vs. sulfate P < 0.10.
Where [12] appears, read: Total (0 to 112 days), propionate vs. sulfate P < 0.05, vs. methionine P < 0.10.
The mark [13] stands for this setting: 0 to 28 days, propionate vs. sulfate P < 0.05, vs. methionine P < 0.10.
[14] abbreviates: 55 to 112 days (so in the source).
Setting [15] is: zinc sulfate arbitrarily set at 100%.
Setting [16] is: day 21, zinc sulfate arbitrarily set at 100%.

On to `CSCC[C@H](N)C(=O)O.O=S(=O)([O-])O.O=S(=O)([O-])O.[Zn+2]` [Zinc methionine, Zinc methionine bisulfate], for which, in series [1] (29 to 56 days, methionine vs propionate (P<0.05)), the “gains, second 28-day period (in words)” value is “gains were greater (P<0.05) in steers fed zinc methionine compared with those fed zinc propionate”. Also, in series [1] (112-day study), the “Gains for the entire study (in words)” value is given as “tended to be higher for steers fed zinc methionine”. The Average daily gain came to 1.33 kg in series [1] (0 to 28 days); 1.18 kg in series [1] (setting [9]); 0.87 kg in series [1] (57 to 84 days); 1.34 kg in series [1] (85 to 112 days); 1.18 kg in series [1] (Total (0 to 112 days)); 1.32 in series [2] (0 to 28 days). Also, the Average daily gain came out at 1.45 in series [2] (29 to 56 days); 1.57 in series [2] (57 to 84 days); 0.97 in series [2] (85 to 112 days); 1.22 in series [2] (113 to 140 days); 1.31 in series [2] (Total (0 to 140 days)). Besides, the Feed intake in series [1] (0 to 28 days) was 8.11 kg/day; in series [1] (29 to 56 days), 9.03 kg/day; in series [1] (setting [11]) it was 8.62 kg/day; in series [1] (85 to 112 days) it was 8.56 kg/day; in series [1] (Total (0 to 112 days)), 8.58 kg/day; in series [2] (0 to 28 days) it was 6.35 kg/day. Moreover, the Feed intake was found to be 7.76 kg/day in series [2] (29 to 56 days); 6.43 kg/day in series [2] (57 to 84 days); 8.51 kg/day in series [2] (85 to 112 days); 6.59 kg/day in series [2] (113 to 140 days); 7.13 kg/day in series [2] (Total (0 to 140 days)). Further, the Gain/feed in series [1] (setting [8]) is 0.164; in series [1] (setting [10]), 0.132; in series [1] (57 to 84 days), 0.104; in series [1] (85 to 112 days), 0.158; in series [1] (setting [12]), 0.139; in series [2] (setting [13]) it was 0.208. In addition, the Gain/feed in series [2] (29 to 56 days) stood at 0.186; in series [2] (setting [14]), 0.115; in series [2] (57 to 84 days), 0.244; in series [2] (113 to 140 days) it was 0.184; in series [2] (Total (0 to 140 days)) it was 0.183. Further, the results for the Final weight in series [1] (112-day study) and in series [2] were 399.6 kg and 487.6 kg, respectively. Also, the Initial weight in series [1] is 267.7 kg; in series [2], 304.7 kg. Further, in series [1] (total study period, vs zinc sulfate (P<0.10)), the “feed consumption (in words)” value is “consumed more (P<0.10) feed over the total study period than steers fed zinc sulfate”. Besides, in series [3], the “biological availability vs inorganic salts (in words)” value is “more biologically available to the animal than are the same ions provided from inorganic salts”. In addition, in series [4] (setting [15]), the “Relative Biological Availability: Feed conversion (corr.)” value is given as 90.38%. Besides, the “Relative Biological Availability: Body weight gain” value in series [4] (setting [15]) amounted to 131.52%. Also, the “Relative Biological Availability: Bone ash” value in series [4] (setting [15]) is 113.95%. Besides, in series [4] (setting [15]), the “Relative Biological Availability: Ending body weight” value stood at 132.46%. Moreover, in series [4] (day 21), the “levels of zinc in the blood and tibia ash (in words)” value was “comparable levels of zinc in the blood and tibia ash”. Also, in series [4] (setting [16]), the “Relative Biological Availability: Plasma Zinc” value stood at 124.00%. Besides, in series [4] (setting [16]), the “Relative Biological Availability: Tibia ash zinc” value came to 123.99%.

With `O=S(=O)([O-])[O-].[Zn+2]` [Zinc sulfate], the Average daily gain in series [1] (0 to 28 days) is given as 1.34 kg; in series [1] (setting [9]), 1.10 kg; in series [1] (57 to 84 days), 0.72 kg; in series [1] (85 to 112 days) it was 1.36 kg; in series [1] (Total (0 to 112 days)), 1.13 kg; in series [2] (0 to 28 days), 1.26. The Average daily gain in series [2] (29 to 56 days) was 1.46; in series [2] (57 to 84 days), 1.52; in series [2] (85 to 112 days), 1.19; in series [2] (113 to 140 days) it was 1.24; in series [2] (Total (0 to 140 days)), 1.33. For the same compound, the Feed intake in series [1] (0 to 28 days) was found to be 7.67 kg/day; in series [1] (29 to 56 days), 8.13 kg/day; in series [1] (setting [11]), 7.62 kg/day; in series [1] (85 to 112 days) it was 7.86 kg/day; in series [1] (Total (0 to 112 days)), 7.82 kg/day; in series [2] (0 to 28 days), 6.28 kg/day. The Feed intake in series [2] (29 to 56 days) came out at 7.51 kg/day; in series [2] (57 to 84 days) it was 6.21 kg/day; in series [2] (85 to 112 days), 8.33 kg/day; in series [2] (113 to 140 days), 6.60 kg/day; in series [2] (Total (0 to 140 days)), 6.99 kg/day. Further, the Gain/feed in series [1] (setting [8]) stood at 0.178; in series [1] (setting [10]), 0.137; in series [1] (57 to 84 days) it was 0.095; in series [1] (85 to 112 days), 0.174; in series [1] (setting [12]), 0.145; in series [2] (setting [13]), 0.201. In addition, the Gain/feed in series [2] (29 to 56 days) is reported as 0.195; in series [2] (setting [14]), 0.142; in series [2] (57 to 84 days), 0.244; in series [2] (113 to 140 days), 0.189; in series [2] (Total (0 to 140 days)) it was 0.191. For the same compound, the Final weight in series [1] (112-day study) stood at 391.8 kg; in series [2], 489.6 kg. Besides, the Initial weight in series [1] was determined as 265.5 kg; in series [2] it was 303.0 kg. Also, the “Relative Biological Availability: Feed conversion (corr.)” value in series [4] (setting [15]) is given as 100.00%. Moreover, in series [4] (setting [15]), the “Relative Biological Availability: Body weight gain” value was 100.00%. In addition, the “Relative Biological Availability: Bone ash” value in series [4] (setting [15]) was found to be 100.00%. Besides, the “Relative Biological Availability: Ending body weight” value in series [4] (setting [15]) came to 100.00%. Moreover, the “Relative Biological Availability: Plasma Zinc” value in series [4] (chicken, in vivo, 30240 min) is recorded as 100.00%. Further, in series [4] (chicken, in vivo, 30240 min), the “Relative Biological Availability: Tibia ash zinc” value is reported as 100.00%.

`CC(=O)[O-].CC(=O)[O-].[Zn+2]` [zinc acetate, Zinc acetate]: the “toxicity (in words)” value in series [5] is recorded as “toxic to chickens”.

As for `O=C([O-])CC(O)(CC(=O)[O-])C(=O)[O-].O=C([O-])CC(O)(CC(=O)[O-])C(=O)[O-].[Zn+2].[Zn+2].[Zn+2]` [zinc citrate], the “absorption of metal cations in the gastrointestinal tract (in words)” value in series [3] was “variable results, enhancing absorption in one study and having no effect in others”.

For the compound `NCCCC[C@H](N)C(=O)O.[Zn]` [zinc-lysine], the “biological availability vs inorganic salts (in words)” value in series [3] is listed as “more biologically available to the animal than are the same ions provided from inorganic salts”.

For the compound zinc picolinate, the “absorption of zinc (in words)” value in series [6] was “not in cattle”; in series [7], “enhance the absorption of zinc in humans and rats”. Moreover, the “absorption of metal cations in the gastrointestinal tract (in words)” value in series [3] was “variable results, enhancing absorption in one study and having no effect in others”.
